Source: US20250197425A1, “2,6,9-TRISUBSTITUTED PURINES” (ASTRAZENECA AB, priority 2022, published 2025)
Converted amounts (≈) assume the structure as drawn.

Legend:
[1] = Aqueous thermodynamic solubility, shake-flask; type: physicochemical; conditions: aqueous phosphate buffer, 25 °C, pH 7.4, aqueous buffer, thermodynamic from solid, phosphate buffer 0.1 M, pH 7.4, 24 hours
How it was run: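 After 24 h stirring at 25° C. in pH 7.4 phosphate buffer (0.1 M), solid-free supernatant from two centrifugations was quantified by UPLC/MS/MS after dilution in water. Compound was added as dried material after DMSO removal.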

[2] = test system: MCF-7 cells; assay: Cellular proliferation EdU assay, MCF-7; type: cell-based; conditions: Homo sapiens, MCF7, 48 h, EdU assay, two days; read-out: MCF-7 IC50
How it was run: (§1)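 MCF-7 (800 cells/well) and OVCAR3 (1200 cells/well) in RPMI with 10% FBS exposed to compounds for two days at 37 °C.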

[3] = CLint assessment in human liver microsomes (HLM); type: in vitro ADME; conditions: 1 μM
Procedure: After a preincubation with NADPH for 8 minutes, reactions were initiated through the addition of the test compound (final volume 250 μl) and incubated at 37° C. in a water bath for 30 minutes. […] Samples were shaken at 800 rpm for 2 minutes and centrifuged at 4000 rpm for 20 minutes at 4° C. to pellet precipitated protein. The supernatant fraction was diluted 1:5 with deionized water, shaken at 1000 rpm for 2 minutes, and further diluted 1:1 with deionized water. Samples were analyzed by LC-MS/MS. The t1/2 and the CLint of the compounds incubated in the LM, HLM, and HμREL assays as described above were calculated according to the following equations: […] where V (μl/×10^6 cells or mg protein) is the incubation volume (μl) divided by the number of cells (×10^6) or microsomal protein content (mg) in the incubation.

[4] = test system: NPM phosphorylation (Thr199, CDK2-cyclin E complex); assay: NPM phosphorylation imaging assay in MCF-7 cells; type: cell-based; conditions: Homo sapiens, 4N DNA cells
How it was run: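 MCF-7 cells were fixed, permeabilised and immunostained, then imaged for phospho-NPM (Thr199), a CDK2-cyclin E site. Analysis was gated on 4N-DNA cells by Hoechst staining. Signals were normalised to controls and fitted for IC50.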

[5] = test system: OVCAR3 cells; assay: Cellular proliferation EdU assay, OVCAR3; type: cell-based, human; conditions: Homo sapiens, OVCAR-3, 48 h, EdU assay, two days; read-out: OVCAR3 IC50
How it was run: as §1

[6] = target: CDK1:CCNB1 (Homo sapiens (Human), UniProt P06493); assay: NanoBRET assay in MCF-7 cells, CDK1; type: cell-based; conditions: NanoBRET, transfected MCF-7 cells, 2 hours; n = 1 or average; read-out: CDK1 IC50
How it was run: (§2)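 Intracellular target engagement was measured by NanoBRET ratio (460 nm/610 nm) in live MCF-7 cells transiently carrying CDK4:CCND1 (Tracer K-7, 100 μM stock) or CDK1:CCNB1 (Tracer K-9, 400 μM stock).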

[7] = target: CDK2:CCNE1 (Homo sapiens (Human), UniProt P24941); assay: NanoBRET assay in MCF-7 cells, CDK2; type: cell-based; conditions: transfected MCF-7 cells, 2 hours, n = 1 or average
How it was run: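 In live MCF-7 cells, compound added followed by NanoBRET TE Tracer K-9 (stock 200 μM) for CDK2, 2 h at 37° C, 5% CO2.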

[8] = test system: POLR2A Ser2 phosphorylation (CDK9); assay: POLR2A Ser2 phosphorylation imaging assay in MCF-7 cells; type: cell-based; conditions: Homo sapiens, MCF7, 2 h, MCF-7 cells, 2 hours; read-out: POLR2A Ser2 phosphorylation IC50
How it was run: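 MCF-7 cells were fixed, permeabilised and immunostained for POLR2A phospho-Ser2, then imaged by high-content microscopy. Levels were normalised to controls and IC50 values derived.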

[9] = target: CDK4:CCND1 (Homo sapiens (Human), UniProt P11802); assay: NanoBRET assay in MCF-7 cells, CDK4; type: cell-based; conditions: NanoBRET, transfected MCF-7 cells, 2 hours; n = 1 or average; read-out: CDK4 IC50
How it was run: as §2

CDK4:CCND1, sequence (P11802 whole entry): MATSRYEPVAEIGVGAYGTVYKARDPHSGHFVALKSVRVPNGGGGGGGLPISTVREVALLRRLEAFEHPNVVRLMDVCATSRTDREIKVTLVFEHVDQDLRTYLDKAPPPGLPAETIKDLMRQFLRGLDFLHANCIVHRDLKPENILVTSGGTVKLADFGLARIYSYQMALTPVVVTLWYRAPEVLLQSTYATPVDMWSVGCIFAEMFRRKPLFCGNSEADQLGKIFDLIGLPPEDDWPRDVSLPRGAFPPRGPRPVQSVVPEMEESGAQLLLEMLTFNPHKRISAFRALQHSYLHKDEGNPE
CDK4:CCND1, sequence (P24385 whole entry partner): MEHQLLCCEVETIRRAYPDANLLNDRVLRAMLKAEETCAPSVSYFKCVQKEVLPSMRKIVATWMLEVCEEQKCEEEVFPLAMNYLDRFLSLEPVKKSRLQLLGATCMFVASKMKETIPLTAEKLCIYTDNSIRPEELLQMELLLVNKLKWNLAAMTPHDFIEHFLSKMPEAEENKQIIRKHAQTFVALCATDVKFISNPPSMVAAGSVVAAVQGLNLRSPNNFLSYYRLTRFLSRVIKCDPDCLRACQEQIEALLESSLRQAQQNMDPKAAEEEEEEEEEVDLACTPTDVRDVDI
CDK1:CCNB1, sequence (P06493 whole entry): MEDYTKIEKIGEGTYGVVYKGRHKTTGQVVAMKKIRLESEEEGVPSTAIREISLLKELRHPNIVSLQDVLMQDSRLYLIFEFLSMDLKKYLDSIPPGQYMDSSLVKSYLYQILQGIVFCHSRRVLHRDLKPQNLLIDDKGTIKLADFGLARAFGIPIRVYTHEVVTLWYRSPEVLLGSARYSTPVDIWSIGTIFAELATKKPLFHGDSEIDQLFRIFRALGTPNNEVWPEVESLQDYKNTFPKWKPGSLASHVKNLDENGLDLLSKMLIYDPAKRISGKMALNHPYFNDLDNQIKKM
CDK1:CCNB1, sequence (P14635 whole entry partner): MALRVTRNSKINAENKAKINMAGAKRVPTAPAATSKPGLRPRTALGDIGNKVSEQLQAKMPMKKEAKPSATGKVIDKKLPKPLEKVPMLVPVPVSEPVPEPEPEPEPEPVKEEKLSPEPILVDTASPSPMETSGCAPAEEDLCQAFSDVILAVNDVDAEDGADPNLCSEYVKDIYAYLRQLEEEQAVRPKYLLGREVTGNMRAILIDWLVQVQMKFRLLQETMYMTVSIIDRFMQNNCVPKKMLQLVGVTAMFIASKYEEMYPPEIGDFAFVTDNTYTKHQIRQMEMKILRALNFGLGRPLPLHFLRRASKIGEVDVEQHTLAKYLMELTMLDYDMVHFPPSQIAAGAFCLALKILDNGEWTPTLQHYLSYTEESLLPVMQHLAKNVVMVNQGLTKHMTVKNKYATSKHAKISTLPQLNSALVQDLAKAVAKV

| IC50 ([4]; MCF7, 2 h) | Structure (SMILES) | solubility at 24 h [1] | IC50 [2] | HLM CLint [3] | IC50 [5] | IC50 [6] | IC50 [7] | IC50 [8] | IC50 [9] | IC50 ([4]; MCF7, 2 hours) |
| --- | --- | --- | --- | --- | --- | --- | --- | --- | --- | --- |
| 41 nM | CCNS(=O)(=O)N1CC[C@H](Nc2nc(N[C@@H](CO)C3CC3)nc3c2ncn3C(F)F)C1 [Example 14, (S)-3-((2-(((R)-1-cyclopropyl-2-hydroxyethyl)amino)-9-(difluoromethyl)-9H-purin-6-yl)amino)-N-ethylpyrrolidine-1-sulfonamide] | 320 µM (≈ 147 µg/mL) | 111 nM | 38 µL/min/mg | 51 nM | 98 nM | 6 nM | 4200 nM | 1000 nM |  |
| 231 nM | CC(C)n1cnc2c(N[C@H]3CCN(S(C)(=O)=O)C3)nc(NC(CO)C3CCCC3)nc21 (stereo partly drawn) [Example 15, 2-cyclopentyl-2-((9-isopropyl-6-(((S)-1-(methylsulfonyl)pyrrolidin-3-yl)amino)-9H-purin-2-yl)amino)ethan-1-ol] | 132 µM (≈ 59.6 µg/mL) | 918 nM | >300 µL/min/mg | 568 nM | 1220 nM | 22 nM | > 30000 nM | 2600 nM |  |
| 368 nM | CC(C)n1cnc2c(N[C@H]3CCN(S(C)(=O)=O)C3)nc(NC(CO)C3CCCO3)nc21 (stereo partly drawn) [Example 16, 2-((9-isopropyl-6-(((S)-1-(methylsulfonyl)pyrrolidin-3-yl)amino)-9H-purin-2-yl)amino)-2-(tetrahydrofuran-2-yl)ethan-1-ol] | > 1000 µM | 2520 nM | 96.5 µL/min/mg | 964 nM | 1600 nM | 93 nM | > 30000 nM | 17200 nM |  |
|  | CC[C@H](Nc1nc(N[C@H]2CCN(S(=O)(=O)NC[C@H]3COCCO3)C2)c2ncn(CC)c2n1)[C@@H](C)O [Example 23, (S)—N—(((S)-1,4-dioxan-2-yl)methyl)-3-((9-ethyl-2-(((2R,3S)-2-hydroxypentan-3-yl)amino)-9H-purin-6-yl)amino)pyrrolidine-1-sulfonamide] | 814 µM (≈ 417 µg/mL) | 1950 nM | 57.5 µL/min/mg | 495 nM | 2600 nM | 57 nM | > 30000 nM | > 29700 nM | 484 nM |
|  | CC[C@H](Nc1nc(N[C@H]2CCN(S(=O)(=O)NC[C@@H]3COCCO3)C2)c2ncn(CC)c2n1)[C@@H](C)O [Example 25, (S)—N—(((R)-1,4-dioxan-2-yl)methyl)-3-((9-ethyl-2-(((2R,3S)-2-hydroxypentan-3-yl)amino)-9H-purin-6-yl)amino)pyrrolidine-1-sulfonamide] | 912 µM (≈ 468 µg/mL) | 1430 nM | 61.6 µL/min/mg | 642 nM | 3990 nM | 69 nM | > 30000 nM | > 29700 nM | 624 nM |
|  | CC(C)[C@H](CO)Nc1nc(N[C@H]2CCN(S(=O)(=O)C3CC3)C2)c2ncn(C(C)C)c2n1 [Example 27, (R)-2-((6-(((S)-1-(cyclopropylsulfonyl)pyrrolidin-3-yl)amino)-9-isopropyl-9H-purin-2-yl)amino)-3-methylbutan-1-ol] | 39.8 µM (≈ 18 µg/mL) | 839 nM | >300 µL/min/mg | 337 nM | 1420 nM | 11 nM | > 30000 nM | 3400 nM | 267 nM |
| 2190 nM | CC(C)[C@H](CO)Nc1nc(N[C@H]2CCN(S(C)(=O)=O)C2)c2ncn(C3CC3)c2n1 [Example 29, (R)-2-((9-cyclopropyl-6-(((S)-1-(methylsulfonyl)pyrrolidin-3-yl)amino)-9H-purin-2-yl)amino)-3-methylbutan-1-ol] | 71.2 µM (≈ 30.2 µg/mL) | 2420 nM | 90.5 µL/min/mg | 1380 nM | 3700 nM | 90 nM | > 30000 nM | > 29700 nM |  |
|  | CC(C)n1cnc2c(N[C@H]3CCN(S(C)(=O)=O)C3)nc(N[C@@H](CO)C3CC3)nc21 [Example 30, (R)-2-cyclopropyl-2-((9-isopropyl-6-(((S)-1-(methylsulfonyl)-pyrrolidin-3-yl)amino)-9H-purin-2-yl)amino)ethanol] | 276 µM (≈ 117 µg/mL) | 785 nM | 191 µL/min/mg | 191 nM | 746 nM | 19 nM | > 30000 nM | 5700 nM | 198 nM |
|  | CC[C@H](Nc1nc(N[C@H]2CCN(S(=O)(=O)c3cnn(C)c3)C2)c2ncn(C(C)C)c2n1)[C@@H](C)O [Example 31, (2R,3S)-3-((9-isopropyl-6-(((S)-1-((1-methyl-1H-pyrazol-4-yl)sulfonyl)pyrrolidin-3-yl)amino)-9H-purin-2-yl)amino)pentan-2-ol] | > 1000 µM | 3160 nM | 154 µL/min/mg | 964 nM | 6290 nM | 39 nM | > 30000 nM | > 29700 nM | 1050 nM |
|  | CC[C@H](Nc1nc(N[C@H]2CCN(S(=O)(=O)c3cn(C)cn3)C2)c2ncn(C(C)C)c2n1)[C@@H](C)O [Example 32, (2R,3S)-3-((9-isopropyl-6-(((S)-1-((1-methyl-1H-imidazol-4-yl)sulfonyl)pyrrolidin-3-yl)amino)-9H-purin-2-yl)amino)pentan-2-ol] | > 1000 µM | 3010 nM | 73 µL/min/mg | 688 nM | 2210 nM | 82 nM | > 30000 nM | 28000 nM | 607 nM |
|  | CC(C)[C@H](CO)Nc1nc(N[C@H]2C[C@@H](C)N(S(C)(=O)=O)C2)c2ncn(C(C)C)c2n1 [Example 34, (R)-2-((9-isopropyl-6-(((3S,5R)-5-methyl-1-(methylsulfonyl)-pyrrolidin-3-yl)amino)-9H-purin-2-yl)amino)-3-methylbutan-1-ol] | 59.9 µM (≈ 26.3 µg/mL) | 1150 nM | >300 µL/min/mg | 487 nM | 844 nM | 12 nM | > 30000 nM | 11800 nM | 381 nM |
|  | CC(C)[C@H](CO)Nc1nc(N[C@H]2C[C@H](C)N(S(C)(=O)=O)C2)c2ncn(C(C)C)c2n1 [Example 35, (R)-2-((9-isopropyl-6-(((3S,5S)-5-methyl-1-(methylsulfonyl)-pyrrolidin-3-yl)amino)-9H-purin-2-yl)amino)-3-methylbutan-1-ol] | 26.4 µM (≈ 11.6 µg/mL) | 3330 nM | >300 µL/min/mg | 1620 nM | 6080 nM | 52 nM | > 30000 nM | 11200 nM | 1220 nM |
|  | CC(C)[C@H](CO)Nc1nc(N[C@@H]2CN(S(C)(=O)=O)C[C@H]2C)c2ncn(C(C)C)c2n1 [Example 36, (R)-2-((9-isopropyl-6-(((3S,4R)-4-methyl-1-(methylsulfonyl)-pyrrolidin-3-yl)amino)-9H-purin-2-yl)amino)-3-methylbutan-1-ol] | 11.1 µM (≈ 4.88 µg/mL) | 3010 nM | >300 µL/min/mg | 1250 nM | 2020 nM | 50 nM | > 30000 nM | > 29700 nM | 1230 nM |
|  | CC[C@H](Nc1nc(N[C@H]2C[C@@H](C)N(S(C)(=O)=O)C2)c2ncn(C(C)C)c2n1)[C@@H](C)O [Example 37, (2R,3S)-3-((9-isopropyl-6-(((3S,5R)-5-methyl-1-(methylsulfonyl)-pyrrolidin-3-yl)amino)-9H-purin-2-yl)amino)pentan-2-ol] | 414 µM (≈ 182 µg/mL) | 2790 nM | 143 µL/min/mg | 1300 nM | 4590 nM | 61 nM | > 30000 nM | > 29700 nM | 879 nM |
